One data set deals with T1, telomerase (Homo sapiens, UniProt O14746).
T1 construct: placing cells, tissues, or preferably a cellular extract or other preparation containing telomerase in contact with; endogenous in cells
The data set is described as follows: Inhibition of telomerase activity (IC50). It is filed as biochemical. The text has this: One method used to identify compounds of the invention that inhibit telomerase activity involves placing cells, tissues, or preferably a cellular extract or other preparation containing telomerase in contact with several known concentrations of a test compound in a buffer compatible with telomerase activity. […] Other methods for determining the inhibitory concentration of a compound of the invention against telomerase can be employed as will be apparent to those of skill in the art based on the disclosure herein.
With the above-described methods, IC50 values for several of the compounds of the present invention were determined. The values reported in Table 3 below are only approximate values; more exact IC50 values can be obtained by repetitive testing.

Data set [1] has as its system telomerase-positive cells. The data set is described as follows: Telomere length in telomerase-positive cells treated with Compound XIV (one uncontrolled experiment). The note with it: dosing period of about 48 hours. It is filed as cell-based. The method, then: Colonies of the tumor cell lines, such as the ovarian tumor cell lines OVCAR-5 and SK-OV-3, and normal human cells used as a control (e.g., normal human BJ cells) are prepared using standard methods and materials. In one test, the colonies are prepared by seeding 15-centimeter dishes with about 10^6 cells in each dish. The dishes are incubated to allow the cell colonies to grow to about 80% confluence, at which time each of the colonies are divided into two groups. One group is exposed to a subacute dose of a compound of the invention at a predetermined concentration (e.g., between about 5 μM and about 20 μM) for a period of about 4-8 hours after plating following the split; the other group is exposed to a control (e.g., DMSO).
Each group is then allowed to continue to divide, and the groups are split evenly again (near confluence). The same number of cells are seeded for continued growth. The compound or control is added every fourth day to the samples at the same concentration delivered initially. Remaining cells are analyzed for telomere length. As the untested cell cultures near confluence, the samples are split again as just described. […]
Telomere length is determined by digesting the DNA of the cells using restriction enzymes specific for sequences other than the repetitive T2 AG3 sequence of human telomeres. […]

Data set [2] in a line: Half-life of Compound XIV. It is filed as in vitro ADME. The note with it: additional data suggest; on the order of about.
The mark [3] stands for this setting: Table 3, only approximate values.
Setting [4] is: approximate IC50 values, summary of the table.

SMILES strings stand for the structures.

T1 sequence (O14746 whole entry): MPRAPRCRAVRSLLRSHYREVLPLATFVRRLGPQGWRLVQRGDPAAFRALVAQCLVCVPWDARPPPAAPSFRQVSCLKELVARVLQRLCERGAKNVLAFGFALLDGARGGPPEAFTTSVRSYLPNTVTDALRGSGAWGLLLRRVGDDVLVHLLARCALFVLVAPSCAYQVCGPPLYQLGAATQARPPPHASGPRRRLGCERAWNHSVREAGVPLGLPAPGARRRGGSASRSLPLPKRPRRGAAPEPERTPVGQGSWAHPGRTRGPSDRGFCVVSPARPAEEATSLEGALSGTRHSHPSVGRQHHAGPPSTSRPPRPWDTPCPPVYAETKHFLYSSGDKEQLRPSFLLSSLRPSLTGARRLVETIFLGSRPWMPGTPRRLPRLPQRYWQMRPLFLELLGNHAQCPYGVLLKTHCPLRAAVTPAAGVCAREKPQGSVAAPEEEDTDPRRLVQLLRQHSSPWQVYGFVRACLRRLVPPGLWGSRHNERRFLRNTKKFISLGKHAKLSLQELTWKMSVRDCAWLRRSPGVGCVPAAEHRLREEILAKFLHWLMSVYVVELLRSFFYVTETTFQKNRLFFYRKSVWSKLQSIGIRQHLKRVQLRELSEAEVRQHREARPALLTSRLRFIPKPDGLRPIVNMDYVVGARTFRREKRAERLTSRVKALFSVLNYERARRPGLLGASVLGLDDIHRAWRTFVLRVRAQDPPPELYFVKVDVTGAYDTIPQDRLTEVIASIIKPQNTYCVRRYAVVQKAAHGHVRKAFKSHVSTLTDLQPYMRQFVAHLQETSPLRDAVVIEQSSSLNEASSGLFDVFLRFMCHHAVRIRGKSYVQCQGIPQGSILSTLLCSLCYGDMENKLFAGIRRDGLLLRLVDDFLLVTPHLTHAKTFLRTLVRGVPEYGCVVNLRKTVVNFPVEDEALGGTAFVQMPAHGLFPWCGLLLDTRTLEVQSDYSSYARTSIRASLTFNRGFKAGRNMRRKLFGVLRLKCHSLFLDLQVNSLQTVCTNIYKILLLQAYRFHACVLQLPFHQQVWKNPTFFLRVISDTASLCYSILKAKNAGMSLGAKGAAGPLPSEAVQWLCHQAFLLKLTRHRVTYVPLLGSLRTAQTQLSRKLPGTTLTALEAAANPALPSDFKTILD
T1 sequence (O60832 whole entry partner): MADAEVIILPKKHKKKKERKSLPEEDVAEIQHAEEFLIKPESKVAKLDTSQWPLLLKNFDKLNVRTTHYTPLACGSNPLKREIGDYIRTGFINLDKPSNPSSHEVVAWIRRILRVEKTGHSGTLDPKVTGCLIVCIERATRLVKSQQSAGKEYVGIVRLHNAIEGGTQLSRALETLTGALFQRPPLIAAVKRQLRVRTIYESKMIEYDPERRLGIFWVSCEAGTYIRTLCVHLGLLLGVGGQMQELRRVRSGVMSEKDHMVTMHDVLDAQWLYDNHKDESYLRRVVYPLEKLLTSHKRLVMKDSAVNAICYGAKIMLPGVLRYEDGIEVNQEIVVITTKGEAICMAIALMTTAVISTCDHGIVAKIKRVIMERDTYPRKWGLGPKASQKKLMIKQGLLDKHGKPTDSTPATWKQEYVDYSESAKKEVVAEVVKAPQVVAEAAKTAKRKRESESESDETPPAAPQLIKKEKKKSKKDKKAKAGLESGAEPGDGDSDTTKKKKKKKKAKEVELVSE
T1 sequence (Q9NPE3 whole entry partner): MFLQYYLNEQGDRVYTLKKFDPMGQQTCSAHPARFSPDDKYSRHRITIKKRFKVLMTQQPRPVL
T1 sequence (Q9NX24 whole entry partner): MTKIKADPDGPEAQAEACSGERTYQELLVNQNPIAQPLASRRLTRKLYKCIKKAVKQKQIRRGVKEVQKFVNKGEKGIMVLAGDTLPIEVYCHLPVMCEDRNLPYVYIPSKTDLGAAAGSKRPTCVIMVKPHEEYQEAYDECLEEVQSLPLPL
T1 sequence (Q9NY12 whole entry partner): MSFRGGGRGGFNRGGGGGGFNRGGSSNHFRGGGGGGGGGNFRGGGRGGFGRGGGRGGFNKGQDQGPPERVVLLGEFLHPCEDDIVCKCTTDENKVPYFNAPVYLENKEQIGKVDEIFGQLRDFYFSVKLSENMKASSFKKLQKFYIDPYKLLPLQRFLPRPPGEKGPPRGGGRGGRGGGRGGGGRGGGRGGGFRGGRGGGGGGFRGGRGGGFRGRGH

Take `COc1ccc(N=Cc2ccc(C#N)c(SCc3ccc(Cl)s3)n2)nc1` [Compound LIII]: the 50% inhibitory concentration (IC50) is 5 µM on telomerase (setting [3]) and < 5 µM at telomerase (setting [4]).

For `N#Cc1ccc(C=Nc2ccc(Br)cn2)nc1SCc1ccc(Cl)s1` [Compound LII], the IC50 against telomerase (setting [3]) was < 3.2 µM; on telomerase (setting [4]), < 5 µM.

As for `Cc1ccc(NN=Cc2ccc(C#N)c(SCc3ccc(Cl)c(Cl)c3)n2)cc1` [Compound LIV], on telomerase (setting [3]), the midpoint of inhibition, the IC50, lay at 17 µM.

For the molecule `N#Cc1ccc(C=NNC(=S)Nc2ccc(F)cc2)nc1SCc1ccc(Cl)c(Cl)c1` [Compound LVII], the IC50 against telomerase (setting [3]) was determined as 18 µM.

With `Cc1ccc(NC(=S)NN=Cc2ccc(C#N)c(SCc3ccc(Cl)c(Cl)c3)n2)cc1` [Compound LVI], the IC50 against telomerase (setting [3]) worked out at 18 µM.

At telomerase (setting [3]), `N#Cc1ccc(C=NNc2ccc(Cl)cc2)nc1SCc1ccc(Cl)c(Cl)c1` [Compound LV] registered an IC50 of 19.2 µM.

Turning to `Cc1cccnc1N=Cc1ccc(C#N)c(SCc2ccc(Cl)c(Cl)c2)n1` [Compound XIV], the IC50 against telomerase (setting [3]) is < 3.2 µM; against telomerase (setting [4]), < 5 µM. For the same molecule, in data set [1], the “shorting of telomere length” value was “No significant shorting of telomere length was observed”. For the same molecule, the half-life in data set [2] was ~12 h.

On to `Cc1cccnc1N=Cc1ccc(C#N)c(SCc2ccccc2C(F)(F)F)n1` [Compound XIX], for which half-maximal inhibition against telomerase (setting [3]) (IC50) required 3 µM.

On to `Cc1cccnc1N=Cc1ccc(C#N)c(SCc2ccc3c(c2)C(C)(C)CCC3(C)C)n1` [Compound XLIII], for which the results for the IC50 against telomerase (setting [3]) and against telomerase (setting [4]) were < 3.2 µM and < 5 µM, respectively.

On to `Cc1cccnc1N=Cc1ccc(C#N)c(SCc2csc3ccc(Cl)cc23)n1` [Compound XLVII], for which the 50% inhibitory concentration (IC50) on telomerase (setting [3]) was < 3.2 µM; on telomerase (setting [4]), < 5 µM.

With `Cc1cccnc1N=Cc1ccc(C#N)c(SCc2ccccc2-c2ccccc2)n1` [Compound XVIII], the IC50 on telomerase (setting [3]) came out at 2 µM.

The molecule `Cc1cccnc1N=Cc1ccc(C#N)c(SCc2cc(C(F)(F)F)cc(C(F)(F)F)c2)n1` [Compound XVII] displayed a 50% inhibitory concentration (IC50) against telomerase (setting [3]) of 2 µM.

The molecule `Cc1cccnc1N=Cc1ccc(C#N)c(SCc2c(Cl)cccc2Cl)n1` [Compound XVI] had an IC50 on telomerase (setting [3]) of 1 µM.

At telomerase (setting [3]), `Cc1ccnc(N=Cc2ccc(C#N)c(SCc3ccc(Cl)c(Cl)c3)n2)c1` [Compound XV] displayed a half-maximal inhibitory concentration (IC50) of 8 µM.

Molecule `Cc1cccnc1N=Cc1ccc(C#N)c(SCc2ccccc2Br)n1` [Compound XXIII] showed an IC50 against telomerase (setting [3]) of 2 µM.

On to `Cc1cccnc1N=Cc1ccc(C#N)c(SCc2ccc(-c3ccccc3)cc2)n1` [Compound XXII], for which inhibition against telomerase (setting [3]) was half-maximal at 2 µM (IC50).

Take `Cc1ccccc1CSc1nc(C=Nc2ncccc2C)ccc1C#N` [Compound XXIV]: at telomerase (setting [3]), the IC50 amounted to 3 µM.

On telomerase (setting [3]), `Cc1cc(C)cc(CSc2nc(C=Nc3ncccc3C)ccc2C#N)c1` [Compound XXIX] yielded an IC50 of 2 µM.

For the molecule `Cc1cccnc1N=Cc1ccc(C#N)c(SCc2ccc(C(C)C)cc2)n1` [Compound XXI], the IC50 on telomerase (setting [3]) was 2 µM.

With `Cc1cccnc1N=Cc1ccc(C#N)c(SCc2ccc(C(F)(F)F)cc2C(F)(F)F)n1` [Compound XXVII], the half-maximal inhibitory concentration (IC50) at telomerase (setting [3]) turned out to be 5 µM.

For `Cc1ccc(C)c(CSc2nc(C=Nc3ncccc3C)ccc2C#N)c1` [Compound XXVI], half-maximal inhibition against telomerase (setting [3]) (IC50) was put at 0.9 µM.

In turn, `Cc1cccnc1N=Cc1ccc(C#N)c(SCc2cc(Cl)cc3c2OCOC3)n1` [Compound XXV] registered an IC50 on telomerase (setting [3]) of 4 µM.

As for `Cc1cccnc1N=Cc1ccc(C#N)c(SCc2cc(Cl)cc(Cl)c2)n1` [Compound XXXII], on telomerase (setting [3]), the IC50 was < 3.2 µM.

With `Cc1ccc(CSc2nc(C=Nc3ncccc3C)ccc2C#N)c(C)c1` [Compound XXXI], the IC50 on telomerase (setting [3]) is < 3.2 µM.

Take `Cc1cccnc1N=Cc1ccc(C#N)c(SCc2cc(Cl)cc(Cl)c2)n1` [Compound XXXVII]: the 50% inhibitory concentration (IC50) against telomerase (setting [4]) is < 5 µM.

On telomerase (setting [3]), `Cc1cccnc1N=Cc1ccc(C#N)c(SCc2ccc(C(C)(C)C)cc2)n1` [Compound XXX] yielded an IC50 of 2 µM.

On telomerase (setting [3]), `Cc1cccnc1N=Cc1ccc(C#N)c(SCc2ccc(C=Cc3ccccc3)cc2)n1` [Compound XX] had an IC50 of 8 µM.

For the molecule `CCN1C(=O)c2ccc(N=Cc3ccc(C#N)c(SCc4ccc(Cl)c(Cl)c4)n3)cc2C1=O` [Compound X], the half-inhibitory concentration (IC50) on telomerase (setting [3]) came to 9 µM.

In turn, `N#Cc1ccc(C=Nc2ccc(Cl)cc2)nc1SCc1ccc(Cl)c(Cl)c1` [III] showed an IC50 at telomerase (setting [3]) of 6.5 µM.

`COc1ccc(N=Cc2ccc(C#N)c(SCc3ccc(Cl)c(Cl)c3)n2)cc1` [IV]: the 50% inhibitory concentration (IC50) against telomerase (setting [3]) was 4.9 µM; at telomerase (setting [4]) it was < 5 µM.

As for `N#Cc1ccc(C=Nc2ccc3c(c2)C(=O)N(Cc2ccccc2)C3=O)nc1SCc1ccc(Cl)c(Cl)c1` [IX], on telomerase (setting [3]), the IC50 worked out at 8 µM.

For the molecule `Cc1cccnc1N=Cc1ccc(C#N)c(SCC#CCSc2nc(C=Nc3ncccc3C)ccc2C#N)n1` [LXI], the results for the IC50 on telomerase (setting [3]) and at telomerase (setting [4]) were < 3.2 µM and < 5 µM, respectively.

`N#Cc1ccc(C=Nc2ccc3c(c2)OCCO3)nc1SCc1ccc(Cl)c(Cl)c1` [VIII] yielded an IC50 at telomerase (setting [3]) of 10 µM.

On to `N#Cc1ccc(C=Nc2ccc(Br)c(C(F)(F)F)c2)nc1SCc1ccc(Cl)c(Cl)c1` [VII], for which, on telomerase (setting [3]), the half-inhibitory concentration (IC50) was determined as 12 µM.

The molecule `N#Cc1ccc(C=Nc2ccc(F)c(F)c2)nc1SCc1ccc(Cl)c(Cl)c1` [VI] displayed an IC50 on telomerase (setting [3]) of 10 µM.

For the molecule `N#Cc1ccc(N=Cc2ccc(C#N)c(SCc3ccc(Cl)c(Cl)c3)n2)cc1Cl` [V], half-maximal inhibition against telomerase (setting [3]) (IC50) required 10 µM.

Molecule `Cc1ccc(N=Cc2ccc(C#N)c(SCc3ccc(Cl)c(Cl)c3)n2)nc1` [XIII] registered an IC50 against telomerase (setting [3]) of 7 µM.

The molecule `Cc1nc(N=Cc2ccc(C#N)c(SCc3ccc(Cl)c(Cl)c3)n2)ccc1Br` [XII] showed an IC50 at telomerase (setting [3]) of 7 µM.

On telomerase (setting [3]), `Cc1cccnc1N=Cc1ccc(C#N)c(SCc2cccc(Cl)c2F)n1` [XXVIII] had a concentration for half-maximal inhibition (IC50) of 2 µM.

The IC50 is the concentration needed to halve the response being measured. Low values mean higher potency, high ones lower potency. The term half-life denotes how long it takes for the measured level to halve. Low values mean rapid decline, high ones slow decline.

Source of the values: patent US5767278A, “Telomerase inhibitors” (Geron Corporation, priority 1995, dated 1998).
